We go through 8 compounds from US12674058B2, “Compound, photosensitive resin composition comprising same, photosensitive resin film, color filter and CMOS image sensor” (SAMSUNG SDI CO., LTD., priority 2021, dated 2026).

Structures are written as SMILES.

The series can be described thus: Measurement of solubility in dilution solvent (PGMEA). The following applies: 0.5 g compound in PGMEA, stirred at 25° C. for 1 hour. In kind it is physicochemical. On the procedure: 0.5 g of each compound Synthesis Examples 1 to 5 and Comparative Synthesis Examples 1 to 5 was added to a dilution solvent (PGMEA), and each corresponding solution was stirred with Mix-Rotar VMR-5 (Luchi Seieido Co., Ltd.) at 25° C. for 1 hour and then, evaluated with respect to solubility, and the results are shown in Table 2.
Solubility Evaluation Criteria
• 10 wt % or more of the compound (solute) was dissolved in the total amount of the diluent: ∘ • Less than 10 wt % of the compound (solute) was dissolved in the total amount of diluent: X
Turning to `CCN(CCCCCCN(CC)c1ccc2c(-c3ccccc3S(=O)(=O)[O-])c3ccc(N(CCN4C(=O)c5ccccc5C4=O)c4c(C)cccc4C)cc3[o+]c2c1)c1ccc2c(c1)OC1C=C(N(CCN3C(=O)c4ccccc4C3=O)c3c(C)cccc3C)C=CC1=C2c1ccccc1S(=O)(=O)O` (centres unmarked) [Synthesis Example 3], the Solubility result is listed as “◯”. As to `CCN(CCCCCCN(CC)c1ccc2c(-c3ccccc3S(=O)(=O)[O-])c3ccc(N(CN4C(=O)c5ccccc5C4=O)c4c(C)cccc4C)cc3[o+]c2c1)c1ccc2c(c1)OC1C=C(N(CN3C(=O)c4ccccc4C3=O)c3c(C)cccc3C)C=CC1=C2c1ccccc1S(=O)(=O)O` (centres unmarked) [Comparative Synthesis Example 5, reference compound], the Solubility result is given as “X (Less than 10 wt % of the compound (solute) was dissolved in the total amount of diluent)”.

Consider `Cc1cccc(C)c1N(CCCN1C(=O)c2ccccc2C1=O)C1=CC2Oc3cc(N(C)CCN(C)c4ccc5c(-c6ccccc6S(=O)(=O)[O-])c6ccc(N(CCCN7C(=O)c8ccccc8C7=O)c7c(C)cccc7C)cc6[o+]c5c4)ccc3C(c3ccccc3S(=O)(=O)O)=C2C=C1` (centres unmarked) [Comparative Synthesis Example 3, reference compound], for which the Solubility result is reported as “X (Less than 10 wt % of the compound (solute) was dissolved in the total amount of diluent)”. The entry for `CCN(CCCCCCN(CC)c1ccc2c(-c3ccccc3S(=O)(=O)[O-])c3ccc(N(CCCN4C(=O)c5ccccc5C4=O)c4ccccc4C)cc3[o+]c2c1)c1ccc2c(c1)OC1C=C(N(CCCN3C(=O)c4ccccc4C3=O)c3ccccc3C)C=CC1=C2c1ccccc1S(=O)(=O)O` (centres unmarked) [Synthesis Example 4] is “◯”. As to `Cc1cccc(C)c1N(CCCN1C(=O)c2ccccc2C1=O)C1=CC2Oc3cc(N(C)CCCN(C)c4ccc5c(-c6ccccc6S(=O)(=O)[O-])c6ccc(N(CCCN7C(=O)c8ccccc8C7=O)c7c(C)cccc7C)cc6[o+]c5c4)ccc3C(c3ccccc3S(=O)(=O)O)=C2C=C1` (centres unmarked) [Synthesis Example 5], the Solubility result is “◯”. `Cc1cccc(C)c1N(CCCN1C(=O)c2ccccc2C1=O)C1=CC2Oc3cc(N(C)CCCCCCCCCCCN(C)c4ccc5c(-c6ccccc6S(=O)(=O)[O-])c6ccc(N(CCCN7C(=O)c8ccccc8C7=O)c7c(C)cccc7C)cc6[o+]c5c4)ccc3C(c3ccccc3S(=O)(=O)O)=C2C=C1` (centres unmarked) [Comparative Synthesis Example 4, reference compound]: the Solubility entry was “X (Less than 10 wt % of the compound (solute) was dissolved in the total amount of diluent)”. In the case of `CCN(CCCCCCN(CC)c1ccc2c(-c3ccccc3S(=O)(=O)[O-])c3ccc(N(CCCN4C(=O)c5ccccc5C4=O)c4c(C)cccc4C)cc3[o+]c2c1)c1ccc2c(c1)OC1C=C(N(CCCN3C(=O)c4ccccc4C3=O)c3c(C)cccc3C)C=CC1=C2c1ccccc1S(=O)(=O)O` (centres unmarked) [Synthesis Example 1], the Solubility result is listed as “◯”. For `CCN(CCCCCCN(CC)c1ccc2c(-c3ccccc3S(=O)(=O)[O-])c3ccc(N(CCCCN4C(=O)c5ccccc5C4=O)c4c(C)cccc4C)cc3[o+]c2c1)c1ccc2c(c1)OC1C=C(N(CCCCN3C(=O)c4ccccc4C3=O)c3c(C)cccc3C)C=CC1=C2c1ccccc1S(=O)(=O)O` (centres unmarked) [Synthesis Example 2], the Solubility entry is on record as “◯”.
